Legend:
[1] = system: db/db mice; assay: Biochemical indexes of db/db mice after 6 weeks of intragastric administration; type: in vivo; settings: ig once a day for 6 weeks, metformin 250, irbesartan 50, verbascoside 70.8 mg·kg^−1·d^−1
Experimental: 32 male db/db mice and 10 male db/m mice of SPF grade, aged 6-8 weeks and weighing 25-40 g, were purchased from Nanjing Biomedical Research Institute of Nanjing University with an animal license number of SCXK (Su 2015-0001).The mice were raised in an animal room under alternating light and dark every 12 hours with constant temperature of 22±2° C. and humidity of 55±10%.
All mice were adaptively fed for 3 weeks, and db/m mice were used as a control group with a total number of 10. Db/db mice were randomly divided into four groups according to blood sugar and body weight each of 8 mice, and the four groups respectively were a model group (M), a metformin group (EJSG, 250 mg·kg^−1·d^−1), an irbesartan group (EBST, 50 mg·kg^−1·d^−1) and a verbascoside group (MRHTG, 70.8 mg·kg^−1·d^−1). The same amount of saline was intragastrically administered(ig) to the mice in the control group and the model group, and the volume of intragastric administration (ig) was 10 mL·kg^−1, and such administration was performed once a day for continuous 6 weeks.
One day before the end of the experiment, urine was collected in a metabolic cage for 12 hours and the urine volume was recorded. Microalbuminuria content was measured and fasting blood glucose (FBG) of mice in each group was measured by tail vein blood sampling. After drug intervention, mice were anesthetized with intraperitoneal injection of 10% chloral hydrate, and blood was collected from eyeballs. The blood was centrifuged at 3000 rpm and 4° C. for 10 minutes to obtain a serum. The serum was then subjected to determination of serum creatinine, blood urea nitrogen, blood insulin, cholesterol, triglyceride, glutamic-pyruvic transaminase and glutamic-oxalacetic transaminase contents.

[2] = system: kidneys of db/db mice; assay: Pathological sections of kidney (HE, PAS) of db/db mice; type: in vivo; settings: 6 weeks, irbesartan 50, verbascoside 70.8 mg·kg^−1·d^−1
[3] = system: db/db mice serum; assay: Serum metabonomics (UPLC-QTOF/MS, PLS-DA) of db/db mice; type: in vivo; settings: mouse serum, mean ± SD, n = 6; for Relative distance between administration group and control group in PLS-DA score plot, ESI −: negative ion mode, model group 43.46 ± 3.15; for Relative distance between administration group and control group in PLS-DA score plot, ESI +: positive ion mode, model group 36.62 ± 3.28
Experimental: After 6 weeks of administration, each of the mice was subjected to blood collection by removing eyeballs. The blood sample was centrifuged at 4° C. and 3000 rpm for 10 minutes to obtain a serum. 100 μL of the frozen-thawed serum was mixed uniformly with 300 μL of acetonitrile under vortex for 2 minutes to produce a mixture. The mixture was centrifuged at 4° C. and 13000 rpm for 10 minutes, and the protein precipitate was removed while the supernatant was collected for determination.
Chromatographic conditions: ACQUITY™UPLC BEH C18 column (2.1 mm×100 mm, 1.7 μm); and mobile phase: 0.1% formic acid aqueous solution (A)−acetonitrile (B). The gradient elution of serum was programmed as follows: 0-3 minutes, 95%-55% A; […], 55%-5% A; 13-14 minutes, 5% A. The injection volume was 2 μL and a column temperature of 35° C. was employed.
Mass spectrometry conditions: ESI ion source (ESI^+/ESI^−); mass scanning range: 100-1000 m/z; a capillary voltage of 3.0 kV and a cone voltage of 30 V; an extraction voltage of 2.0 V; ion source temperature and desolvation temperature: respectively 120° C. and 350° C.; cone gas flow rate: 50 L/h; collision energy: 20-50 eV; desolvation gas flow rate: 600 L/h; activation time: 30 ms; and collision gas: high-purity nitrogen. Leucine-enkephalin (ESI^−: 555.2615 m/z, ESI^+: 556.2771 m/z) solution of 200 pg/mL was used as a mass-locking solution at a flow rate of 100 μL/min.
The obtained original mass spectrometry data was processed using Masslynx v4.1 software. The main parameters included: retention time range: 0-14 minutes; m/z range: 100-1000; mass tolerance range: 0.01 Da; peak intensity threshold: 50; mass window: 0.05 Da; retention time window: 0.2 minutes; and automatic detection of 5% peak height and noise. The intensity of each ion was normalized relative to the total ion count to produce a data list consisting of retention time, m/z value and standardized peak area. The data were imported into EZinfo 2.0 for supervised partial least squares discriminant analysis (PLS-DA) and orthogonal partial least squares discriminant analysis (OPLS-DA). The separation of various metabolites between the control group and the model group was shown in the OPLS-DA plot. Potential biomarkers were extracted from the S-plot constructed after OPLS-DA analysis, and each point in the S-plot represented the information of the corresponding variable. The variable importance in the projection (VIP) was measured by the magnitude of the VIP value. The variables were screened according to the VIP value, and the variable with VIP>1 may be selected as a potential biomarker and the molecular formula of the variable of significant difference between the model group and the control group was further identified. Cross validation parameters R^2Y and Q^2were used to describe the PLS-DA score plot, which represented the total explanatory variables of the […] and the predictability of the model, respectively. When a cumulative value of R^2Y and Q^2 was greater than 0.8, the model may be considered to be reliable. The relative distances between other groups and the control group in the PLS-DA score plot were calculated using the average values of all samples (X and Y axes) of the control group as reference points. This quantitative value can be used as an evaluation index of pharmacodynamics and metabonomics to solve many problems in lacking of accurate and quantitative evaluation methods for pharmacodynamics. SPSS 21.0 software was used for statistical analysis of the relevant data. T-test analysis was performed among groups to verify the significance of the difference of potential biomarkers in different groups. The data were expressed as mean±SD, and the data were considered to have a statistical significance with P<0.05. […]

[4] = system: HK-2 cells; assay: Proliferation of high-glucose induced HK-2 cells; type: cell-based, human; settings: for inhibition ratio % / OD: 48 hours; for effect on the proliferation of HK-2: in vitro studies, discussion
Experimental: (§1) Human renal tubular epithelial cells (HK-2) were provided by Nanjing KeyGEN Biotechnology Development Co., Ltd. The complete medium was a low-sugar DMEM with 10% FBS and 1% penicillin-streptomycin solution. The cells were cultured at 37° C. under 5% CO2 and saturated humidity in an incubator. Cells were spread in a 96-well plate and cultured with a 5 mmol/Llow-sugar DMEM for 24 hours. […] The number of cells in each group was detected using a cell counting method after 48 hours of the incubation.

[5] = system: HK-2 cells; assay: Morphology of high-glucose induced HK-2 cells; type: cell-based, human; settings: 50 μmol/L, 48 hours
[6] = system: NOX1, NOX2, NOX4, α-SMA, E-cadherin, NF-κB p65, TGF-β1, Smad2, Smad3, Smad4 and Smad7 in HK-2 cells; assay: Protein expression in high-glucose induced HK-2 cells (Western blotting); type: cell-based, human; settings: for effect on the formation of EMT: in vitro studies, HK-2, discussion
Experimental: as §1, with “The expression quantity of related proteins and mRNA in each cell is detected using Western blotting method and Real-time PCR, and the secretion of related factors in cell supernatant is detected using ELISA. […] Human” for “Human”

[7] = system: NOX1, NOX2, NOX4, α-SMA, E-cadherin, NF-κB p65, TGF-β1, Smad2, Smad3, Smad4 and Smad7 in HK-2 cells; assay: mRNA expression in high-glucose induced HK-2 cells (Real-time PCR); type: cell-based, human; settings: 50 μmol/L, HK-2 cells with high glucose-induced injuries
Text: (§2) In the present invention, human renal tubular epithelial (HK-2) cells are selected to establish a high sugar-induced HK-2 cell injury model, and TLR capsules, TLR extract and its major active components verbascoside and catalpol are used for intervention. The expression quantity of related proteins and mRNA in each cell is detected using Western blotting method and Real-time PCR, and the secretion of related factors in cell supernatant is detected using ELISA. In addition, the effect of TLR on regulating oxidative stress reactions of HK-2 cells and TGF-β/smad signal pathway is further explored.
as §1

[8] = system: MCP-1, IL-1β, TNF-α and IL-6 in supernatant of HK-2 cells; assay: Secretion of inflammatory factors in supernatant of HK-2 cells (ELISA); type: cell-based, human; settings: 50 μmol/L, HK-2 cells with high glucose-induced injuries
Text: as §2, §1

[9] = rats; cited from earlier work
[10] = system: nephrotoxic nephritis rats model; settings: cited from earlier work
[11] = 10 μmol·L^−1, high glucose 30 mmol/L
[12] = 25 μmol·L^−1, high glucose 30 mmol/L
[13] = 50 μmol·L^−1, high glucose 30 mmol/L
[14] = 100 μmol·L^−1, high glucose 30 mmol/L

| SMILES | contents of FBG, T-CHO, TG, GOT, GPT, INS, BUN, mALB and Scr [1] | results of histological examination of kidney (HE, PAS mean OD) [2] | Relative distance between administration group and control group in PLS-DA score plot, ESI − [3] | Relative distance between administration group and control group in PLS-DA score plot, ESI + [3] | OD [4, 13] | inhibition ratio % [4, 13] [%] | effect on the proliferation of HK-2 [4] | cell morphologies [5] | effect on the formation of EMT [6] | also measured |
| --- | --- | --- | --- | --- | --- | --- | --- | --- | --- | --- |
| C[C@@H]1O[C@@H](O[C@@H]2[C@@H](O)[C@H](OCCc3ccc(O)c(O)c3)O[C@H](CO)[C@H]2OC(=O)/C=C/c2ccc(O)c(O)c2)[C@H](O)[C@H](O)[C@H]1O [verbascoside] | tended to be normal | close to those of the control group | 28.59 ± 3.33 | 31.62 ± 1.07 | 0.557 ± 0.012 | 73.95 | had an effect on inhibiting | close to those of the control group | had an effect on inhibiting | inhibition ratio % ([4]; 5 μmol·L^−1, high glucose 30 mmol/L): 25.52%; OD ([4]; 5 μmol·L^−1, high glucose 30 mmol/L, control 0.632, model 0.345): 0.418 ± 0.008; OD [4, 11]: 0.457 ± 0.014; inhibition ratio % [4, 11]: 39.02%; OD [4, 12]: 0.501 ± 0.015; inhibition ratio % [4, 12]: 54.36%; OD [4, 14]: 0.559 ± 0.01; inhibition ratio % [4, 14]: 74.65%; proliferation of HK-2 cells under a high glucose condition ([4]; 5, 10, 25, 50, 100 μmol/L): could promote the proliferation of HK-2 cells under a high glucose condition, and the promotion of the proliferation was dose-dependent; protein expressions of NOX1, NOX2, NOX4, α-SMA, E-cadherin, NF-κB p65, TGF-β1, Smad2, Smad3, Smad4 and Smad7 ([6]; 50 μmol/L, HK-2 cells with high-glucose induced injuries): all returned to normal; mRNA expressions of NOX1, NOX2, NOX4, α-SMA, E-cadherin, NF-κB p65, TGF-β1, Smad2, Smad3, Smad4 and Smad7 [7]: all returned to normal; expression levels of MCP-1, IL-1β, TNF-α and IL-6 in the supernatant [8]: returned to normal; oral bioavailability [9]: low; adverse effects [10]: without causing obvious adverse effects; renal function injury [10]: capable of improving |
| CCCCC1=NC2(CCCC2)C(=O)N1Cc1ccc(-c2ccccc2-c2nnn[nH]2)cc1 [irbesartan, reference compound] | tended to be normal | close to those of the control group | 32.16 ± 10 | 21.56 ± 8.01 | 0.576 ± 0.02 | 80.57 |  | close to those of the control group |  |  |
| CN(C)C(=N)N=C(N)N [metformin] | tended to be normal |  | 34.94 ± 2.74 | 36.57 ± 1.53 |  |  |  |  |  |  |
| OC[C@H]1O[C@@H](O[C@@H]2OC=C[C@H]3[C@H](O)[C@@H]4O[C@]4(CO)[C@@H]23)[C@H](O)[C@@H](O)[C@@H]1O [catalpol, reference compound] |  |  |  |  |  |  | had an effect on inhibiting |  | had an effect on inhibiting |  |
